“Also recorded” adds a separate entry of the source.
B1: HMGB1: high-mobility group protein B1, SEQ ID NO: 1; recombinant HIS-tagged HMGB1 available from Sigma (protein, listed as Homo sapiens)
chain: MGKGDPKKPRGKMSSYAFFVQTCREEHKKKHPDASVNFSEFSKKCSERWKTMSAKEKGKFEDMAKADKARYEREMKTYIPPKGETKKKFKDPNAPKRPPSAFFLFCSEYRPKIKGEHPGLSIGDVAKKLGEMWNNTAADDKQPYEKKAAKLKEKYEKDIAAYRAKGKPDAAKKGVVKAEKSKKKKEEEEDEEDEEDEEEEEDEEDEDEEEDDDDE
modifications: His tag
notes: recombinant HIS-tagged HMGB1 available from Sigma

Tests used:
[1] = system: HMGB1; assay: HMGB1 quantitation from keratinocytes (ELISA, normalized to total protein); format: cell-based; conditions: for change in HMGB1 level relative to the control (in words): keratinocytes contacted with test agent at different concentrations; for HMGB1 (pg)/protein (ug): keratinocytes, vehicle control 54
Description: Make a 210 mL suspension of keratinocytes at 40,000 cells/mL using suitable media to make a cell suspension. Place 2 mL of the cell suspension into the appropriate number of wells of one or more 12-well plates as needed, using the same velocity and insertion angle for each well as cells are pipetted. Incubate the 12-well plates overnight at 37° C. If the cell plating quality is poor (e.g., cells are not attached to plate or seeding density is uneven), discard and start over. Prepare a dosing media by diluting the test agent to the desired concentration (e.g., from 0.0001% to 10%) in a suitable media (e.g., the same media used to make the cell suspension). […] It is not uncommon for skin care actives to be included in skin care compositions at these levels. Optionally, include sufficient solublizer to provide 0.1% solublizer in the test sample. Add 2 mL of dosing media into each well of a 12-well plate and incubate at 4° C. overnight or until test agent is to be added to the test sample. Place prepared dosing media in the 37° C. incubator for at least 30 minutes, or until pH has equalized. When dosing media is warmed and at proper pH, dose the cells. Incubate the dosed cells at 37° C. for 6 hours. Keratinocytes (or other cells) are plated out in 12 well plates as described above with a seeding density of about 200,000 cells/well and incubated overnight at 37° C. with 5% CO2. The keratinocytes are dosed with a dosing medium containing the test agent and the plates returned to the incubator for another 20 hours. The supernatant for each is collected and the HMGB1 level analyzed using ELISA (USCN Life Sciences) in accordance with manufacturer's instructions. The cells are lysed with Glo Lysis Buffer (Promega) and the protein levels determined using a PIERCE brand bicinchoninic acid protein assay kit per manufacturer's instructions. The values of HMGB1 determined by ELISA and normalized to total protein levels from the cells.

[2] = system: primary human melanocytes; assay: Melanocyte dendricity and size measurements (Incucyte ZOOM live cell imaging); format: cell-based
Text: The ability of a test agent to inhibit dendricity and cell body growth in melanocytes may be determined by contacting a sample of melanocytes with the test agent, measuring the change in dendricity and/or cell body growth and comparing the measured indicator to a control to determine if the test agent is identified as a skin tone agent. In some instances, it is important for the test sample to include a source of HMGB1. For example, an amount of HMGB1 (e.g., recombinant HIS-tagged HMGB1 available from Sigma) may be included in the test sample (e.g., at a final level of 0.1 μg/mL), or the test sample may include another type of cell, which can be stimulated to produce HMGB1. A control may be obtained by measuring the dendricity and/or cell body size of the melanocytes prior to contact with the test agent, measuring the dendricity and/or cell body size of the melanocytes in a control sample and/or from the dendricity and/or cell body size of melanocytes published in scientific literature, if available.
Primary human melanocytes (ATCC) are cultured for 2 passages in T150 flasks. For dendricity experiments, melanocytes are plated into 96 well plates (clear) at a density of about 5000 cells/well. The plates are placed into an Incucyte ZOOM® live cell imaging system (Essen Bioscience, Ann Arbor, Mich.) which resides inside a 37° C., 5% CO2 incubator. 20× images are collected every hour using the phase mode. The Neurite Outgrowth Software Package (Essen) is used to measure cell body size, dendrite length, and cell numbers.

[3] = melanocytes contacted with HMGB1 vs control / before treatment, span of three days

Molecule | change in HMGB1 level relative to the control (in words) [1] | HMGB1 (pg)/protein (ug) ([1]; test agent at 0.001%) [pg/µg] | HMGB1 (pg)/protein (ug) ([1]; test agent at 0.005%) [pg/µg] | HMGB1 (pg)/protein (ug) ([1]; test agent at 0.02%) [pg/µg] | cell body size of melanocytes [2, 3] | dendricity (dendrite length) of melanocytes [2, 3] | melanocyte proliferation ([2]; primary human melanocytes contacted with HMGB1)
hydroxycinnamic acid [HCA] | significantly reduced HMGB1 levels relative to the control | 29 | 6 | 2 | – | – | –
methyl hydroxycinnamic acid [ME-HCA] | significantly reduced HMGB1 levels relative to the control | 33 | 28 | 4 | – | – | –
B1 | – | – | – | – | significantly larger cell body size relative to the control; also recorded: increased dendricity and cell body size | significantly longer dendrites relative to the control; also recorded: increased dendricity | without enhancing melanocyte proliferation

From US10054582B2, “Compositions and methods for inhibiting HMGB1 activation of melanocytes” (The Procter & Gamble Company, priority 2014, dated 2018)
